Assay results published in ChEMBL document CHEMBL5727953, “Sulfonylcycloalkyl carboxamide compounds” (2020).

Biological target: Transient receptor potential cation channel subfamily A member 1 (Homo sapiens, UniProt O75762)
Assay: Inhibition Assay: IC50 values (effective concentration) of compounds on the human and rat TRPA1 channels were determined using a FLIPR Tetra instrument. CHO cells expressing TRPA1 were plated into 384-well plates, incubated overnight at 37 C, and loaded with BD calcium indicator dye for 1 hr at 37° C. followed by 15 minutes. at room temperature. The assay buffer was Hank's Balanced Salt Solution (HBSS) containing 20 mM HEPES (pH readjusted to 7.4) along with 0.02% BSA.Following dye load and plate cool down, compounds were added to the cells using FLIPR Tetra. Plates were then incubated with compounds for 20 minutes at room temperature prior to adding agonist. Following this incubation, ˜EC80 concentration of cinnamaldehyde (75 uM for human TRPA1 and 45 uM for rat TRPA1) was added to active the channels and block of cinnamaldehyde induced calcium influx was measured.

Sequence of Transient receptor potential cation channel subfamily A member 1 (O75762 whole entry): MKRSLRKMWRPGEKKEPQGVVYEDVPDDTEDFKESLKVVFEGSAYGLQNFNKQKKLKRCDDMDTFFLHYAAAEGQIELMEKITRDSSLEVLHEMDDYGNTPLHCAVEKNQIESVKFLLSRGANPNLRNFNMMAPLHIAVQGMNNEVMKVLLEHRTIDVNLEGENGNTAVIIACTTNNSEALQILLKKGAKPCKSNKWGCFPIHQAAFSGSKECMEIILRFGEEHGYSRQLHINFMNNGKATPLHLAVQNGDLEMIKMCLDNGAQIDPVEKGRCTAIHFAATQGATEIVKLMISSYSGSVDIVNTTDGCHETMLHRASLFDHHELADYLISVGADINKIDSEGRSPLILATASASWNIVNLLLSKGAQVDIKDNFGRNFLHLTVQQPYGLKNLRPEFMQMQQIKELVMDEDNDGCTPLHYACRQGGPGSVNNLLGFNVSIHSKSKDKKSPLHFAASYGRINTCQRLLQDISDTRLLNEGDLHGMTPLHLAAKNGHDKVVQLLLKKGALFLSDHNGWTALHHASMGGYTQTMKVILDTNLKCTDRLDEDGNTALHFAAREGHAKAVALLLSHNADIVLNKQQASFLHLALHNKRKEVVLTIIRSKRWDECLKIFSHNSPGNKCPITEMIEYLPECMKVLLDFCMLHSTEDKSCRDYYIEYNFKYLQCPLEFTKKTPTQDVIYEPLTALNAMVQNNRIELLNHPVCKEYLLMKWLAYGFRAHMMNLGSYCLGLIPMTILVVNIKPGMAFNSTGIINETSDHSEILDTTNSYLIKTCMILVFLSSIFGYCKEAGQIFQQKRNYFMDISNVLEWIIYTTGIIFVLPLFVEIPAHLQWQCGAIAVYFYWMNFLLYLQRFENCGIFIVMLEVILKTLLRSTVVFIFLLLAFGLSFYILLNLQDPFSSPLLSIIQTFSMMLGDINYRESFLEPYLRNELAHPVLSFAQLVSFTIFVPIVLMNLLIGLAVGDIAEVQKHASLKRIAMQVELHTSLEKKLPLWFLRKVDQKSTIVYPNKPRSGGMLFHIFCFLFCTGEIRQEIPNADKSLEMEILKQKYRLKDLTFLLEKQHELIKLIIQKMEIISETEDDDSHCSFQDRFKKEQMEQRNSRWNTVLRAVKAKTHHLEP

Row | IC50 | Compound
1 | 246 nM | COc1nn(-c2cnc(C(F)(F)F)nc2)cc1CC(=O)N[C@@H]1CC[C@@H]1S(=O)(=O)c1ccc(F)cc1
2 | 200 nM | O=C(Cn1cc(-c2ccc(C(F)(F)F)cc2)cn1)N[C@@H]1CC[C@@H]1S(=O)(=O)c1ccc(F)cc1
